Where two headings read alike, the source gives them in different places.
Columns and labels:
LPA4 = LPA4 (Homo sapiens, UniProt Q99677); assay: LPA4 Calcium Flux Assay; format: cell-based; settings: read-out: Ca Flux IC50 LPA4
[1] = Solubility in a range of solvents (crystallisation experiments); format: physicochemical; settings: organic solvents; water, cyclohexane, heptane unsuitable
Experimental: 20 mg of Compound 1 was weighed into a HPLC vial. 40 μL of ethanol was added and the vial was heated to reflux with a hot air gun. The solution was cooled to ambient temperature and the solids were filtered off. Crystalline Compound 1 (Pattern 1) was obtained as determined by XRPD. In the same manner as described from ethanol, the following solvents also provided crystalline Compound 1 (Pattern 1): methanol, 2-methoxyethanol, ethanol, 1-propanol, 2-propanol, 1-butanol, butyl acetate, acetone, methylethyl ketone, anisole, toluene. 5 Volumes (i.e. 100 μL) of the following solvents with heating also provided crystalline Compound 1 (Pattern 1): nitromethane, acetonitrile, ethyl acetate, cumene.
Compound 1 dissolved in 2 volumes (i.e. 40 μL) of the following solvents at ambient temperature: 1-4-dioxane, tetrahydrofuran. The vials were uncapped and allowed to slowly evaporate. This provided crystalline Compound 1 (Pattern 1).

Human LPA3 = target: T1, Human LPA3 (Homo sapiens, UniProt Q9UBY5); assay: LPA3 Calcium Flux Assay; format: cell-based; settings: human LPA3 expressing CHO cells, 10 nM LPA; read-out: Ca Flux IC50 LPA3
T1 construct: The full-length cDNA fragment for human LPA3 was obtained by PCR from the vector
T1 sequence (Q9UBY5 1-353): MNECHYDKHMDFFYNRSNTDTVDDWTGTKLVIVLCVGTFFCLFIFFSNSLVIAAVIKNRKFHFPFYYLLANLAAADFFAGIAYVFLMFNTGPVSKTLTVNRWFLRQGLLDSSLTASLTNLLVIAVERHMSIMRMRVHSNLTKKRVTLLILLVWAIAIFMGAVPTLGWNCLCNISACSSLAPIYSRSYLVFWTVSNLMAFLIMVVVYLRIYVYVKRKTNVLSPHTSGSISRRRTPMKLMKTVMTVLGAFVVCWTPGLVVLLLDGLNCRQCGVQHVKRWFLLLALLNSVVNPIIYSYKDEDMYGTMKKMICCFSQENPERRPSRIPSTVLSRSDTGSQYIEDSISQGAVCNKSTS
Experimental: A vector containing the human LPA3 receptor cDNA was obtained from the Missouri S&T cDNA Resource Center (www.cdna.org). The full-length cDNA fragment for human LPA3 was obtained by PCR from the vector. The nucleotide sequence of the cloned human LPA3 was determined by sequencing and confirmed to be identical to the published human LPA3 sequence (NCBI accession number NM_012152). The cDNA was cloned into the pCDNA5/FRT expression plasmid and transfected in CHO cells using lipofectamine 2000 (Invitrogen Corp., USA). Clones stably expressing human LPA3 were selected using hygromycin and identified as cells that show Ca-influx in response to LPA.
Human LPA1 or LPA3 expressing CHO cells are seeded at 20,000-45,000 cells per well in a 96-well poly-D-lysine coated plate one or two days before the assay. Prior to the assay, the cells are washed once with PBS and then cultured in serum-free media overnight. On the day of the assay, a calcium indicator dye (Calcium 4, Molecular Devices) in assay buffer (HBSS with Ca^2+ and Mg^2+ and containing 20 mM Hepes and 0.3% fatty-acid free human serum albumin) is added to each well and incubation continued for 1 hour at 37° C. 10 μl of test compound in 2.5% DMSO are added to the cells and incubation continued at room temperature for 30 minutes. Cells are the stimulated by the addition of 10 nM LPA and intracellular Ca^2+ measured using the Flexstation 3 (Molecular Devices). IC50s are determined using Graphpad prism analysis of drug titration curves.

[2] = Pharmacokinetics in Sprague-Dawley Rats; format: in vivo; settings: for mean dose adjusted exposure (AUC0-24/D) / Cmax / bioavailability / AUC(0-t): PO 1 mg/kg; for mean dose adjusted exposure (AUC0-24/D) / dose adjusted AUC value (AUC0-24/D) / Cmax / bioavailability: fasted; for Cmax / bioavailability / AUC(0-t): Sprague-Dawley, rat, plasma; for Cmax: read-out: maximal plasma concentration (Cmax); for bioavailability: read-out: apparent bioavailability; for AUC(0-t): fed, read-out: exposure (AUC0-24)
Experimental: The pharmacokinetics of Compound 1 and Compound 2 was assessed in male and female Sprague-Dawley rats (225-300 g at 10 weeks).
Compound 2 (1 mg/kg) was administered intravenously (IV) to fasted rats (n=3) as a solution in purified water via a bolus injection into the jugular vein (1 mg/mL; 1 mL/kg). Compound 1 (10 mg/kg) was administered orally (PO), to fasted (for at least 12 hours) or non-fasted rats (n=2 or 3) as a solution in 0.5% methylcellulose unless otherwise noted via an oral gavage to the stomach (3.33 mg/mL; 3 mL/kg). Non-fasted animals were fasted for at least 12 hours and then were given food ad libitum for 1 hour prior to dosing. Fasted animals were dosed 1, 10, 30, 100 or 300 mg/kg Compound 1 as a solution in 0.5% methylcellulose via an oral gavage to the stomach (0.69 mg/mL, 10 mg/mL, 33.3 mg/mL or 100 mg/mL) (n=2 or 3 per dose group). In a gastrointestinal study, rats were anesthetized and Compound 1 was administered directly to the duodenum, jcjunum or ilcum at 1 mg/kg in 0.5% methylcellulose.
Capsules were also administered with Compound 2. Capsules were size 9 gelatin (Torpac, San Diego, Calif.).
Blood samples (approximately 300 μL total blood) were taken from each rat via the jugular vein cannula at pre-dose, and an initial time of 5 or 15 min and then various time points up to 24 hours post-dose (10-11 samples per animal). Samples were collected on wet ice in tubes containing potassium EDTA. After each blood draw, the cannula was flushed with an equivalent volume of heparinized saline (0.1 mL at 40 units/mL). Plasma samples, prepared by centrifugation of whole blood, were stored frozen (−80° C.) prior to analysis.

LPA5 = LPA5 (Homo sapiens, UniProt Q9H1C0); assay: LPA5 Calcium Flux Assay; format: cell-based; settings: read-out: Ca Flux IC50 LPA5
Sequence of LPA5 (Q9H1C0 whole entry, species assumed): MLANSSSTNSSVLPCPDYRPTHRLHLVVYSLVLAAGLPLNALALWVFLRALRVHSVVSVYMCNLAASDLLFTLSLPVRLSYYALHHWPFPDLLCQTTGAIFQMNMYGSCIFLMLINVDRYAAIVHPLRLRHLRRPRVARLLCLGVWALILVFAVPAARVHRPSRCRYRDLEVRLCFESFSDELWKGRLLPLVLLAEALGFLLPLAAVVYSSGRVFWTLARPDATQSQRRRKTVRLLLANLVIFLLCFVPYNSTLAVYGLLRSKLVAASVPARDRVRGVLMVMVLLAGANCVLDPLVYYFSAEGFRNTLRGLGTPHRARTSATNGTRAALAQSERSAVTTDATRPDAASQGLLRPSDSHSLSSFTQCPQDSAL

Sequence of LPA4 (Q99677 whole entry, species assumed): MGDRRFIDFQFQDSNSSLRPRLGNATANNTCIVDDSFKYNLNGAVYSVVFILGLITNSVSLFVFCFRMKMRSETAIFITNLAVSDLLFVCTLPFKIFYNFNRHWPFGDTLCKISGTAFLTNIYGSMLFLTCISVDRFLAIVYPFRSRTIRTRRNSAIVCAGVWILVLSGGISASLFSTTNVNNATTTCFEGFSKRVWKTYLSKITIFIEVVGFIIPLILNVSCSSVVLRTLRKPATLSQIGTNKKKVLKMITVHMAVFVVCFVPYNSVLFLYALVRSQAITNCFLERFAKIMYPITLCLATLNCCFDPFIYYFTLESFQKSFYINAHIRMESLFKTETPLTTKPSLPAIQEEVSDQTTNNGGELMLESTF

IC50 (LPA4): > 1000 nM
solubility in a range of solvents [1]: good solubility in a range of solvents
IC50 (Human LPA3): > 1000 nM
mean dose adjusted exposure (AUC0-24/D) ([2]; females): 1.9 µg·h/mL
mean dose adjusted exposure (AUC0-24/D) ([2]; males): 2.1 µg·h/mL
dose adjusted AUC value (AUC0-24/D) ([2]; PO 10 mg/kg, female rats): 2.7 µg·h/mL
dose adjusted AUC value (AUC0-24/D) ([2]; PO 10 mg/kg, male rats): 2.4 µg·h/mL
dose proportionality of exposure ([2]; PO 30, 100 and 300 mg/kg): greater than dose proportional
dose proportionality of exposure ([2]; PO doses of 1 and 10 mg/kg, suspension): dose proportional
Cmax ([2]; female rats): 300 ng/mL
bioavailability ([2]; female): 58%
Cmax ([2]; male rats): 400 ng/mL
bioavailability ([2]; male): 63%
AUC(0-t) ([2]; female rats): 1400 ng·h/mL
AUC(0-t) ([2]; male rats): 1600 ng·h/mL
dose normalized exposure ([2]; oral, 10 mg/kg): 5.1 µg·h/mL
IC50 (LPA5): > 1000 nM
SMILES: Cc1noc(-c2ccc(-c3ccc(C4(C(=O)O)CC4)cc3)cc2)c1NC(=O)O[C@H](C)c1ccccc1 [Compound 1, 1-{4′-[3-methyl-4-((R)-1-phenyl-ethoxycarbonylamino)-isoxazol-5-yl]-biphenyl-4-yl}-cyclopropanecarboxylic acid]
exposure in fed vs. fasted animals ([2]; PO 10 mg/kg): slightly lower exposure in fed animals vs. fasted
regional absorption ([2]; administered directly to duodenum, jejunum or ileum at 1 mg/kg): good oral bioavailability along the entire gastrointestinal tract
